Results on seven compounds are retold here after the supplement of paper PMC11061612.

Assay [1] has as its system HCC-78 (Lung Adenocarcinoma). Nature of the assay: combination Emax (second highest fraction inhibited in the dose matrix, 72 h); higher = more inhibition; extreme values may be limits of the assay. An outline of the steps:
(§1)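 Cell lines grown in DMEM/F12 or RPMI with 10% FBS were plated in 1536-well plates and held 24 hours at 37°C, 5% CO2 before 72 hours of exposure to two-drug dose matrices, with DMSO typically at 0.2%. CellTiter-Glo 2.0 luminescence gave viability, which was converted to inhibition. Vehicle wells were set to 0 and blank wells to 1. Combination Emax is the second-highest inhibition in the matrix, and Bliss excess is the observed combination effect minus the expected EA + EB − EA·EB, where EA and EB are the single-agent effects.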

In assay [2] the test system is DoTc2-4510 (Cervical Carcinoma). Described as above. An outline of the steps: as §1
The subject of assay [3] is NB10 (Neuroblastoma). Described as above. In outline:
as §1

For assay [4], the system named is LS-180 (Colorectal Carcinoma). Described as above. In outline: as §1
Assay [5] has as its system NCI-H82 (Small Cell Lung Carcinoma). Nature of the assay: Bliss excess, mean over the matrix (fraction); higher = more synergy. An outline of the steps:
as §1

Assay [6] concerns HCC-78 (Lung Adenocarcinoma). Described as above. An outline of the steps: as §1
In assay [7] the test system is DoTc2-4510 (Cervical Carcinoma). The description is as above. In outline:
as §1

Assay [8] deals with NB10 (Neuroblastoma). The assay is described as above. In outline: as §1
The subject of a further assay is KELLY (Neuroblastoma). Described as above. An outline of the steps:
as §1

For assay [9], the system named is TE-9 (Esophageal Squamous Cell Carcinoma). The assay is described as above. In outline: as §1
Assay [10] has as its system Hs-578-T (Breast Carcinoma). Described as above. In outline:
as §1

The subject of the next assay is T98G (Glioblastoma). Described as above. In outline: as §1
Assay [11] deals with ME-1 (Acute Myeloid Leukemia). The description is as above. In outline:
as §1

Assay [12] has as its system RO82-W-1 (Thyroid Gland Carcinoma). The description is as above. An outline of the steps:
as §1

Assay [13] relates to LS-180 (Colorectal Carcinoma). Described as above. In outline: as §1
The subject of assay [14] is CaR-1 (Colorectal Carcinoma). The description is as above. An outline of the steps: as §1
Another assay deals with HOS (Osteosarcoma). The description is as above. An outline of the steps:
as §1

Assay [15] has as its system CAL-148 (Breast Carcinoma). The description is as above. In outline:
as §1

Assay [16] relates to TE-15 (Esophageal Squamous Cell Carcinoma). Described as above. An outline of the steps: as §1
Assay [17] deals with CCRF-CEM (T-Lymphoblastic Leukemia). Described as above. In outline: as §1
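Wherever Bliss excess, mean over the matrix is given: after 72 h of two-drug dosing.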

For `O=C(c1cc(Cc2n[nH]c(=O)c3ccccc23)ccc1F)N1CCN(C(=O)C2CC2)CC1` [Olaparib] + COc1nnc2ccc(N3CCC(c4ccc(OCCN5CCN(C)C(=O)[C@H]5C)cc4)CC3)nn12 [AZD5153] (first compound max 10 µM, 7x7, partner max 1 µM), the “combination Emax” value in assay [1] turned out to be 0.325; in assay [2] it was 0.263; with NB10 (Neuroblastoma) [3], 0.406; in assay [4], 0.581. Besides, the Bliss excess was -0.0326 in assay [5]; -0.0169 in assay [6]; -0.0755 in assay [7]; -0.0558 in the assay on NB10 (Neuroblastoma) [8]; -0.042 in the assay with KELLY (Neuroblastoma); -0.0663 in assay [9]. Further, the Bliss excess in assay [10] is -0.0551; with T98G (Glioblastoma) it was -0.0501; in [11], 0.0123; in assay [12] it was -0.0002; in [13], -0.0495; in assay [14], -0.105. Further, the Bliss excess in the assay on HOS (Osteosarcoma) was -0.057; in assay [15], -0.0366; in [16] it was -0.0671; in assay [17], 0.0457.
Turning to `O=C(c1cc(Cc2n[nH]c(=O)c3ccccc23)ccc1F)N1CCN(C(=O)C2CC2)CC1` [Olaparib] + Cc1c2c(nn1C)CSCc1cc(n(C)n1)CSc1cc(c3ccccc3c1)OCCCc1c(C(=O)O)n(C)c3c-2c(Cl)ccc13 [AZD5991] (first compound max 10 µM, 7x7, partner max 1 µM), the “combination Emax” value in assay [1] turned out to be 0.13; in [2], 0.224; in the assay on NB10 (Neuroblastoma) [3], 0.437; in assay [4], 0.221. For the same compound, the Bliss excess in assay [5] was -0.0755; in assay [6], -0.0244; in assay [7], -0.0397; in the assay with NB10 (Neuroblastoma) [8], -0.0166; with KELLY (Neuroblastoma), 0.0826; in assay [9] it was -0.0397. Moreover, the Bliss excess in assay [10] is -0.0621; in the assay on T98G (Glioblastoma) it was -0.0277; in [11], -0.0085; in [12], -0.0375; in assay [13], -0.0207; in [14], -0.0322. The Bliss excess with HOS (Osteosarcoma) is -0.0292; in [15], -0.005; in [16] it was -0.0392; in [17], 0.0053.
Consider `N#Cc1cnc(Nc2cc(NC[C@H]3CNCCO3)c(C(F)(F)F)cn2)cn1` [SRA737] + C=CCn1c(=O)c2cnc(Nc3ccc(N4CCN(C)CC4)cc3)nc2n1-c1cccc(C(C)(C)O)n1 [AZD1775] (first compound max 10 µM, partner max 1 µM), for which the “combination Emax” value in assay [1] was determined as 0.714; in assay [2], 0.725; in the assay with NB10 (Neuroblastoma) [3] it was 0.84; in assay [4], 0.758. The Bliss excess in [5] was determined as 0.0115; in assay [6] it was 0.0611; in [7], 0.074; with NB10 (Neuroblastoma) [8], 0.105; in the assay with KELLY (Neuroblastoma), 0.0387; in [9] it was 0.0457. In addition, the Bliss excess in [10] is 0.0771; in the assay on T98G (Glioblastoma) it was 0.0169; in assay [11], 0.0456; in assay [12] it was -0.0441; in [13], 0.0475; in [14], -0.0239. The Bliss excess in the assay on HOS (Osteosarcoma) amounted to 0.06; in assay [15], 0.184; in assay [16] it was 0.0209; in assay [17] it was 0.0688.
`N#Cc1cnc(Nc2cc(NC[C@H]3CNCCO3)c(C(F)(F)F)cn2)cn1` [SRA737] + Nc1ccn([C@@H]2O[C@H](CO)[C@@H](O)C2(F)F)c(=O)n1 [Gemcitabine] (first compound max 10 µM, 7x7, partner max 0.3 µM): the “combination Emax” value in assay [1] is 0.906; in assay [2], 0.803; with NB10 (Neuroblastoma) [3] it was 0.946; in [4], 0.804. In addition, the Bliss excess is -0.0231 in assay [5]; 0.0509 in [6]; 0.135 in assay [7]; 0.0922 in the assay with NB10 (Neuroblastoma) [8]; 0.0213 in the assay on KELLY (Neuroblastoma); 0.0126 in assay [9]. Further, the Bliss excess was 0.0695 in assay [10]; 0.0323 in the assay on T98G (Glioblastoma); 0.0803 in assay [11]; -0.0037 in assay [12]; -0.0884 in [13]; -0.0167 in assay [14]. For the same compound, the Bliss excess in the assay with HOS (Osteosarcoma) was 0.114; in assay [15] it was 0.0721; in assay [16], 0.0703; in assay [17] it was 0.0316.
As to `N#Cc1cnc(Nc2cc(NC[C@H]3CNCCO3)c(C(F)(F)F)cn2)cn1` [SRA737] + O=c1[nH]cc(F)c(=O)[nH]1 [5-Fluorouracil] (first compound max 10 µM, 7x7, partner max 20 µM), the “combination Emax” value stood at 0.819 in [1], 0.231 in [2], 0.53 with NB10 (Neuroblastoma) [3] and 0.568 in [4]. Further, the Bliss excess is -0.111 in [5]; 0.0929 in [6]; -0.0201 in assay [7]; -0.0036 in the assay on NB10 (Neuroblastoma) [8]; 0.0153 in the assay on KELLY (Neuroblastoma); 0.0599 in assay [9]. The Bliss excess was 0.0056 in [10]; -0.0277 with T98G (Glioblastoma); -0.0532 in assay [11]; -0.0283 in assay [12]; -0.053 in [13]; -0.0495 in assay [14]. For the same compound, the Bliss excess with HOS (Osteosarcoma) is 0.0248; in assay [15] it was 0.0099; in [16], -0.0033; in assay [17] it was 0.0179.
Regarding `Cc1nc(-c2cn3c(n2)-c2ccc(-c4cnn(C(C)(C)C(N)=O)c4)cc2OCC3)n(C(C)C)n1` [Taselisib] + O=C(Nc1ccc2[nH]nc(-c3ccncc3)c2c1)[C@@H]1CCN(CC(=O)N2CCN(c3ccc(-c4ncccn4)cc3)CC2)C1 [SCH772984] (first compound max 10 µM, 7x7, partner max 5 µM), the “combination Emax” value turned out to be 0.664 in assay [1], 0.691 in assay [2], 0.791 in the assay with NB10 (Neuroblastoma) [3] and 0.867 in assay [4]. In addition, the Bliss excess was -0.0251 in [5]; 0.0886 in assay [6]; 0.0435 in assay [7]; 0.0751 with NB10 (Neuroblastoma) [8]; 0.135 in the assay on KELLY (Neuroblastoma); 0.0303 in assay [9]. Also, the Bliss excess amounted to 0.0748 in assay [10]; 0.0838 with T98G (Glioblastoma); 0.0001 in assay [11]; 0.0009 in assay [12]; 0.0776 in [13]; 0.0708 in [14]. Also, the Bliss excess in the assay on HOS (Osteosarcoma) was 0.0044; in assay [15] it was 0.103; in assay [16], -0.0011; in assay [17] it was 0.124.
For the compound `CC1(C)CCC(CN2CCN(c3ccc(C(=O)NS(=O)(=O)c4ccc(NCC5CCOCC5)c([N+](=O)[O-])c4)c(Oc4cnc5[nH]ccc5c4)c3)CC2)=C(c2ccc(Cl)cc2)C1` [Venetoclax] + CS(=O)(=O)CCNCc1ccc(-c2ccc3ncnc(Nc4ccc(OCc5cccc(F)c5)c(Cl)c4)c3c2)o1 [Lapatinib] (first compound max 1 µM, 7x7, partner max 10 µM), the “combination Emax” value in assay [1] worked out at 0.143; in assay [2] it was 0.522; with NB10 (Neuroblastoma) [3] it was 0.0761; in assay [4], 0.298. In addition, the Bliss excess in assay [5] was -0.0384; in assay [6] it was -0.0248; in assay [7], -0.0509; in the assay with NB10 (Neuroblastoma) [8], -0.0238; in the assay on KELLY (Neuroblastoma), 0.0417; in assay [9] it was -0.0254. Moreover, the Bliss excess is -0.0054 in [10]; -0.0049 with T98G (Glioblastoma); 0.0267 in assay [11]; -0.0299 in [12]; -0.0428 in assay [13]; -0.0553 in [14]. The Bliss excess in the assay on HOS (Osteosarcoma) is -0.087; in assay [15], -0.0237; in [16] it was -0.0478; in [17] it was 0.0013.
